Source: PubChem BioAssay (NCI)
“And” between values parts separate entries of the source, which are not always exact repeats. Equal entries are not always repeated.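 Cultured in 96-well plates, cells were exposed to test compound for 48 hours across five concentrations. GI50 = concentration required for 50% inhibition of growth. TGI marks complete inhibition of growth.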

Tests used:
Experiment in all cases: inhibition of tumour cell growth, NCI panel, 48 h
HL-60(TB) leukemia = tested on: HL-60(TB) leukemia
SF-268 CNS = tested on: SF-268 CNS
UO-31 renal = tested on: UO-31 renal
A498 renal = tested on: A498 renal
HT29 colon = tested on: HT29 colon
HCT-116 colon = tested on: HCT-116 colon
NCI-H460 lung = tested on: NCI-H460 lung
SR leukemia = tested on: SR leukemia
OVCAR-4 ovarian = tested on: OVCAR-4 ovarian
NCI-H522 lung = tested on: NCI-H522 lung

SMILES	GI50 (HL-60(TB) leukemia)	TGI (HL-60(TB) leukemia)	GI50 (SF-268 CNS) [µM]	TGI (SF-268 CNS)	GI50 (UO-31 renal)	TGI (UO-31 renal)	GI50 (A498 renal) [µM]	TGI (A498 renal)	GI50 (HT29 colon)	TGI (HT29 colon)	GI50 (HCT-116 colon)	TGI (HCT-116 colon)	GI50 (NCI-H460 lung)	TGI (NCI-H460 lung)	GI50 (SR leukemia) [µM]	TGI (SR leukemia) [µM]	GI50 (OVCAR-4 ovarian)	TGI (OVCAR-4 ovarian)	GI50 (NCI-H522 lung) [µM]	TGI (NCI-H522 lung)
NCCCn1c2c(c3ccc([N+](=O)[O-])cc3c1=O)C(=O)c1cc(I)ccc1-2	< 0.0176 µM	0.0733 µM	0.0841	3.43 µM	0.0273 µM	1.5 µM	3.02	7.72 µM	0.0951 µM	0.352 µM	< 0.01 µM	0.201 µM	< 0.01 µM	1.31 µM	< 0.01	0.929	–	–	–	–
NC(N)=Nc1nc2ccccc2o1	> 100 µM	> 100 µM	> 100	> 100 µM	79.4 µM	> 100 µM	–	–	> 100 µM	> 100 µM	> 100 µM	> 100 µM	> 100 µM	> 100 µM	> 100	> 100	> 100 µM	> 100 µM	–	–
N#CC(I)CS(=O)(=O)c1ccccc1 (configuration not stated)	–	–	18.8	35.2 µM	12 µM	25.8 µM	35.4	> 100 µM	2 µM	4.51 µM	1.66 µM	3.11 µM	21.6 µM	42.4 µM	–	–	2.01 µM	4.69 µM	1.34	2.78 µM
CN1Nc2ccccc2CC1=O	–	–	–	> 100 µM	–	> 100 µM	–	> 100 µM	–	> 100 µM	–	> 100 µM	–	> 100 µM	–	–	–	> 100 µM	–	–
COc1cc(OC)c(OC)cc1/C=N/NC(=O)N/N=C/c1cc(OC)c(OC)cc1OC	–	–	–	> 100 µM	–	> 100 µM	–	> 100 µM	–	> 100 µM	–	> 100 µM	–	> 100 µM	–	–	–	> 100 µM	–	86.5 µM
Cc1nc2sccn2c1-c1nc2sccn2c1/C=C1/C(=O)Nc2ccccc21	–	–	6.18	33.1 µM	4.93 µM	89.7 µM	2.04	8.26 µM	2.96 µM	10.7 µM	3.3 µM	30 µM	3.09 µM	13.5 µM	–	–	13.8 µM	> 100 µM	2.72	11.1 µM
CCCCCCCCc1cc2c(O)c(c1)Cc1cc(CCCCCCCC)cc(c1O)Cc1cc(CCCCCCCC)cc(c1O)Cc1cc(CCCCCCCC)cc(c1O)Cc1cc(CCCCCCCC)cc(c1O)Cc1cc(CCCCCCCC)cc(c1O)C2	–	> 100 µM	–	> 100 µM	–	> 100 µM	–	> 100 µM	–	> 100 µM	–	> 100 µM	–	> 100 µM	–	> 100	–	–	–	–
CNc1nc(N)nc(Nc2ccc(I)cc2)c1N=O	–	> 100 µM	–	> 100 µM	–	> 100 µM	–	–	–	> 100 µM	–	> 100 µM	–	> 100 µM	–	> 100	–	–	–	> 100 µM
O=C1c2cccc3cccc(c23)C(=O)N1CCN(CCO)CCO	–	> 100 µM	–	> 100 µM	–	> 100 µM	–	41.3 µM	–	76.1 µM	–	46.6 µM	–	69.9 µM	–	44.9	–	66 µM	–	–
COc1ccc2c(=O)oc3c(OC)cc(CCN(C)C)c4c(=O)oc1c2c34	10.7 µM and 1.84 µM	26.5 µM and 10.2 µM	–	28.4 µM and 16.6 µM	17.3 µM and 8.48 µM	31.1 µM and 15.6 µM	–	34.8 µM and 17.6 µM	13.7 µM and 5.51 µM	27 µM and 12.6 µM	14.3 µM and 5.27 µM	27.9 µM and 11.9 µM	13.8 µM and 2.4 µM	29.9 µM and 9.03 µM	–	–	3.47 µM and 8.43 µM	12.3 µM and 16.1 µM	–	25.6 µM and 13.9 µM
O/N=C1\CCCCC1C(NO)c1ccccc1 (configuration not stated)	–	> 100 µM	–	> 100 µM	–	> 100 µM	–	> 100 µM	–	> 100 µM	–	> 100 µM	–	> 100 µM	–	–	–	> 100 µM	–	> 100 µM
O=S(=O)(OI(OI(OS(=O)(=O)C(F)(F)F)c1ccccc1)c1ccccc1)C(F)(F)F	–	36.5 µM	–	> 100 µM	–	> 100 µM	–	> 100 µM	–	–	–	> 100 µM	–	> 100 µM	–	–	–	–	–	> 100 µM
CCOC(=O)Nc1c(C)nc2ccccn12	–	–	> 100	> 100 µM	> 100 µM	> 100 µM	> 100	> 100 µM	> 100 µM	> 100 µM	> 100 µM	> 100 µM	> 100 µM	> 100 µM	–	–	> 100 µM	> 100 µM	> 100	> 100 µM
O=C1C=C(Nc2ccc(Cl)cc2C(=O)c2ccccc2)c2ccccc2C1=O	–	> 100 µM	–	> 100 µM	–	> 100 µM	–	> 100 µM	–	> 100 µM	–	> 100 µM	–	> 100 µM	–	–	–	> 100 µM	–	> 100 µM
CCCCCCCC(=O)OCC1OC(n2cc(F)c(=O)[nH]c2=O)C(N)C(OC(=O)CCCCCCC)C1O (configuration not stated)	–	42.3 µM	–	35.4 µM	–	36.6 µM	–	39.1 µM	–	33.4 µM	–	34.6 µM	–	34.8 µM	–	–	–	29 µM	–	28.9 µM
CCCCCCCCSC1=C(Cl)C(=O)C(OC)=C(OC)C1=O	–	16.8 µM	–	28.7 µM	–	25.7 µM	–	27.9 µM	–	34.8 µM	–	19.8 µM	–	69.5 µM	–	–	–	29.8 µM	–	14.4 µM
Cc1nc2c(Br)cc(Br)cc2c(=O)n1-c1nnc(-c2cccc(Cl)c2Cl)c(N)n1	–	–	45.5	> 100 µM	31 µM	> 100 µM	–	–	30.3 µM	> 100 µM	12.8 µM	34.9 µM	20.3 µM	> 100 µM	–	–	84.5 µM	> 100 µM	12.8	54.6 µM
CC[C@@H]1NC(C(=O)OC)Cc2c1[nH]c1ccccc21 (some centres not stated)	–	> 100 µM	–	–	–	> 100 µM	–	> 100 µM	–	> 100 µM	–	> 100 µM	–	> 100 µM	–	> 100	–	> 100 µM	–	–
O=C1C=C(c2c(O)ccc3ccccc23)c2cc(O)ccc2C1=O	–	–	–	32.6 µM	–	36.5 µM	–	–	–	47.9 µM	–	30.1 µM	–	44.7 µM	–	42.9	–	26.1 µM	–	–
